Legend:
[1] = tested on: acute peritonitis induced by zymosan A; assay: Zymosan A induced acute peritonitis in mice (peritoneal cytokines by ELISA, neutrophil counts by flow cytometry); type: in vivo, mice (C57BL/6J); settings: 1 mg/kg intraperitoneal 30 minutes before zymosan A, sacrifice twelve hours later, N=6
Procedure: Acute peritonitis was induced by the injection of 1 mg zymosan A (Sigma-Aldrich) i.p. in 0.5 ml sterile PBS in mice. Twelve hours later the mice were sacrificed by CO2 exposure, and peritoneal cavities were washed with 4 ml ice-cold PBS containing 3 mM EDTA. Cells were stained with Turk’s solution (0.01% crystal violet in 3% acetic acid) and counted using a Neubauer hemocytometer or were stained with FITC-conjugated mAb for Ly-6G/Gr1, F4/80, and corresponding isotype controls (eBioscience, Hatfield, U.K.), and subjected to flow-cytometry analysis using a BD FACSCalibur platform (BD Biosciences, Oxford, U.K.).
Levels of IL-1β and IL-6 in quick frozen samples were quantified according to the manufacturer’s instructions using ELISA Ready-SET-Go! (eBioscience).
All animal studies were approved by and performed under the guidelines of the Ethical Committee for the Use of Animals, Barts and The London School of Medicine and Home Office regulations (Guidance on the Operation of Animals, Scientific Procedures Act, 1986). Male (7-8 wk old) C57BL/6J wild-type (WT) mice were purchased from Charles River Laboratories.
Test Item A, 1 mg/kg or vehicle treatment were given intraperitoneal 30 minutes before induction of the acute peritonitis. N=6 for in both groups.

[2] = tested on: Covid-19 induced pulmonary insufficiency; settings: 100 mg once daily oral, add-on to standard therapy; 6 patients
Procedure: The initial open label part of the study was conducted in 6 patients referred to hospital with Covid-19 induced pulmonary insufficiency, defined as a need for supplementary oxygen to maintain normal saturation.

MC1R [3] = target: MC1R (Homo sapiens, UniProt Q01726); settings: cited from earlier work
MC1R [4] = settings: cited from earlier work
MC3R = settings: cited from earlier work
[5] = tested on: mouse primary macrophages; settings: cited from earlier work
macrophages = settings: cited from earlier work
melanocytes = settings: cited from earlier work
peritonitis = settings: oral; cited from earlier work
[6] = tested on: experimental inflammatory arthritis; settings: oral; cited from earlier work

Chain of MC1R (Homo sapiens, UniProt Q01726) (Q01726 whole entry, species assumed): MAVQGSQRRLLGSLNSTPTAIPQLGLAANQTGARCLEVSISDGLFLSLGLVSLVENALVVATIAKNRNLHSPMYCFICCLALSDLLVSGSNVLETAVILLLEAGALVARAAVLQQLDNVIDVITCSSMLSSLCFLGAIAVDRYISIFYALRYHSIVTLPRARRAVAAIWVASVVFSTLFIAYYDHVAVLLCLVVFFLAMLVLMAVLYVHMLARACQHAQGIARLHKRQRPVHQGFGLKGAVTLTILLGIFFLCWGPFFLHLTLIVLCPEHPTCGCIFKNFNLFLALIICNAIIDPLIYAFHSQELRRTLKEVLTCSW

NC(N)=N/N=C/C=C/c1cccn1-c1ccccc1[N+](=O)[O-] [AP1189, (E)-N-trans-{3-[1-(2-nitrophenyl)-1H-pyrrol-2-yl]-allylidene}-aminoguanidium acetate]
reduction of neutrophil accumulation compared to vehicle [1]: 70%
reduction of levels of pro-inflammatory cytokine IL-1β compared to pretreatment with vehicle ([1]; p<0.05 vs vehicle): 37%
reduction of levels of pro-inflammatory cytokine IL-6 compared to pretreatment with vehicle ([1]; p<0.05 vs vehicle): 59%
development of a need for more intensive pulmonary support [2]: none of them developed a need for more intensive pulmonary support
safety and tolerability [2]: safe and well tolerated
binding to MC1R (MC1R [3]): bind the MC1R
ERK1/2 phosphorylation (MC1R) (MC1R [4]): cause ERK1/2 phosphorylation
canonical cAMP generation (MC1R) (MC1R [4]): does not induce canonical cAMP generation
type of agonism at MC1R (MC1R [4]): biased agonist
ERK1/2 phosphorylation (MC3R) (MC3R): cause ERK1/2 phosphorylation
canonical cAMP generation (MC3R) (MC3R): does not induce canonical cAMP generation
type of agonism at MC3R (MC3R): biased agonist
efferocytosis [5]: proefferocytic effect
cytokine release (macrophages): reduce cytokine release
melanogenesis (melanocytes): no melanogenesis was induced
anti-inflammatory action in peritonitis (peritonitis): elicits anti-inflammatory actions
resolution phase of peritonitis (peritonitis): accelerated the resolution phase
macroscopic and histological parameters of joint disruption [6]: significant reduction

From patent publication US20230149351A1, “TREATMENT OF SYMPTOMATIC VIRAL DISEASES” (SYNACT PHARMA ApS, priority 2020, published 2023)
